We go through two compounds from patent US20180369238A1, “DOPAMINE AGONISTS IN TREATING ALCOHOL USE DISORDERS ASSOCIATED WITH DOPAMINE RECEPTOR ACTIVITY” (MUSC Foundation for Research Development, priority 2017, published 2018).

One data set concerns healthy adults. The conditions noted are these: relative to placebo; healthy adults who carried more higher-DA alleles; cited from earlier work.
Data set [1] has as its system non-treatment-seeking AUD individuals. Kind of data set: Adverse effects, physical symptom checklist. Type of data set: in vivo, human. The conditions noted are these: for Number of subjects with insomnia severity Mild / Number of subjects with insomnia severity Moderate / Number of subjects with insomnia severity None / Number of subjects with insomnia severity Severe: APZ group. From the text: Adverse effects. A physical symptom checklist was used to assess the presence and severity (self-rated as none, mild, moderate, or severe) of 21 possible adverse effects at baseline and on day 8 immediately before the bar-lab paradigm.
For the secondary outcome (adverse effect severity), the GLM was first used to evaluate the main effect of medication on the presence/absence of each effect. […] To account for the influence of these effects on the pharmacogenetic interactions evaluated above, the presence/absence of each was evaluated as a covariate in all models.

Data set [2] has the same test system. Kind of data set: Bar-lab paradigm (alcohol self-administration). The data set is classed as in vivo, human. The note with it: for Bar Lab Drinks: effect size of interaction medication x genotype permutation: n = 94. From the text:
(§1) The study was an eight-day sub-acute dosing human laboratory investigation (ClinicalTrials.gov identifier: NCT01292057). After randomization to study medication, subjects underwent an fMRI alcohol cue-reactivity task on day 7 of medication ingestion and a bar-lab paradigm on day 8. To maximize cue-reactivity and motivation to drink, they were instructed to abstain from alcohol on the evenings of days 6 and 7.
(§2) Randomization and medication. […] Subjects and investigators were blind to both genotype and medication assignment. Thus, subjects were stratified by their baseline Barratt Impulsiveness Scale (BIS-11) score (Patton et al., 1995) into groups with BIS-11 scores greater vs. less than the median score of 68 and randomization was conducted separately within each stratum. Urn variables balanced across medication groups within each stratum were sex and smoking status.
Bar-lab paradigm. […] Thirty minutes later, they were provided a standard caloric lunch, adjusted for gender and weight. At 2:00 PM, subjects were administered a priming drink of their preferred 80-proof liquor in a 1:3 ratio with juice, adjusted for gender, age, and weight to produce a targeted BAC of 30 mg %, and instructed to consume it within five minutes. Forty minutes later, subjects were presented a tray of four drinks, each with a targeted BAC of 15 mg %, and told they could consume as many as they desired over the next hour. After an hour, this tray was removed and another tray of four drinks was made available for consumption over a second hour. To create a decisional balance between drinking and abstaining, subjects were given a “bar credit” of $16 with which to “purchase” drinks, at the cost of $2/drink. After the procedure, subjects were given dinner and remained until 10:00 PM. A BAC measurement below 20 mg % was required before departure, and a friend or taxi drove subjects home.
(§3) Statistical analysis. The general linear model (GLM; SPSS 23, IBM, Armonk, N.Y., United States of America) was used to test the interaction between medication and DAT1/SLC6A3 genotype on the primary outcomes (VS ALC vs. BEV activation and the number of drinks consumed in the bar lab). A model that included between-subjects factors for medication, DAT1/SLC6A3 genotype, and their interaction was tested for each outcome. Analyses first compared 9R carriers to 10R homozygotes, and subsequently examined the additive effect of the 9R allele. […] Significant interactions were followed up with simple effects contrasts. VS activation was also analyzed for correlation (Pearson's r) with day 7 OCDS scores and bar-lab drinking.
The GLM was also used to test the interaction between medication and a DA-related genetic composite on the primary outcomes. The DAT1/SLC6A3 9R, COMT met, DRD2 T, and DRD4 long alleles were categorized as higher-DA alleles, and the total number of alleles each subject carried was calculated (Table 2). Few subjects carried more than four higher-DA alleles (four subjects had five alleles and one had seven), so these subjects were combined with those who carried four, yielding five groups of subjects with zero (n=7), one (n=15), two (n=31), three (n=22), or four or more (n=18) alleles. A model that included between-subjects factors for medication, the additive effect of the number of higher-DA alleles, and their interaction was tested for each outcome.

The conditions of data set [3]: cited from earlier work.
In data set [4] the test system is non-treatment-seeking AUD individuals. Put plainly: fMRI alcohol cue-reactivity task (alcohol cue-elicited ventral striatal activation). Type of data set: in vivo, human. Details: VS Activation: effect size of interaction medication x genotype permutation: scale not given here. The conditions noted are these: for Alcohol cue-elicited VS activation (ALC vs. BEV percent signal change): APZ relative to placebo, day 7; for VS Activation: effect size of interaction medication x genotype permutation: n = 81.
Excerpt: as §1, §2
Neuroimaging. On day 7, subjects were breathalyzed, assessed for alcohol withdrawal, and re-administered the OCDS. As noted above, one subject with a BAC>0 and two subjects with Clinical Institute Withdrawal Assessment for Alcohol-Revised scores >4 were excluded from scanning. After acquisition of a high-resolution anatomical image, subjects were given a sip (10 ml) of their preferred 80-proof liquor mixed with fruit juice and administered a 12-m-long task during which they passively viewed pseudo-randomly interspersed blocks of alcoholic beverage images (ALC; equally distributed between beer, wine, and liquor), nonalcoholic beverage images (BEV), blurred versions of these images that served as visual controls, and a fixation cross. Each 24-s-long block comprised only one image type and was followed by a 6-s period during which subjects were instructed to rate their urge for alcohol. Images were selected from a normative set, supplemented with images from advertisements, and matched for intensity, color, and complexity. This task consistently elicits robust cue-elicited VS activation among non-treatment-seeking AUD individuals.
Functional images were acquired with a gradient echo, echo-planar imaging sequence implemented on a 3T TIM Trio scanner (Siemens, Erlangen, Germany). Acquisition parameters were: repetition/echo times=2200/35 ms; 328 volumes; flip angle=90°; field of view=192 mm; matrix=64×64; voxel size=3.0×3.0 mm; 36 contiguous 3.0-mm-thick transverse slices. Using FEAT (fMRI Expert Analysis Tool) v. 6.00, part of FSL (FMRIB Software Library, University of Oxford, United Kingdom), functional images were realigned to the middle volume, spatially smoothed (8-mm full width at half maximum kernel), resampled to 2-mm isotropic voxels, and registered, first to the subject's high-resolution anatomical image and subsequently to the Montreal Neurological Institute (MNI; Montréal, Canada) 152-subject-average template. Based on previous data indicating an interaction between DAT1/SLC6A3 genotype and naltrexone on alcohol cue-elicited VS activation, the right VS was defined a priori as a 6-mm-radius sphere centered at the point [12 15 −6] in MNI space. For each subject, this sphere was reverse-registered from the MNI-152 image to the subject's anatomical image, and the average percentage change of the blood-oxygen-level-dependent signal between ALC and BEV blocks (i.e., ALC vs. BEV percent signal change) was extracted.
as §3, with “VS activation was also analyzed for correlation (Pearson's r) with day 7 OCDS scores and bar-lab drinking.” left out

The next data set relates to AUD. The note with it: multisite AUD clinical trial; cited from earlier work.
Setting [5] is: 9R carriers vs. 10R homozygotes, APZ vs. placebo.
[6] abbreviates: DAT1 (additive effect of 9R alleles), APZ reduced more with more alleles.
Setting [7] is: DAT1 (additive effect of 9R alleles), APZ reduced more with more alleles, listed as aripiprazole.
[8] abbreviates: DAT1 + COMT + DRD2 + DRD4 (higher-DA alleles composite).

Take `CCCN(CCC)CCc1cccc2c1CC(=O)N2` [ropinirole]: the Impulsive decisions result with healthy adults is reported as “increased impulsive decisions”.
As to `O=C1CCc2ccc(OCCCCN3CCN(c4cccc(Cl)c4Cl)CC3)cc2N1` [APZ, aripiprazole], the “Number of subjects with insomnia severity Mild” value in data set [1] (9R carriers) came out at 11; in data set [1] (10R homozygotes), 8. In addition, the “Number of subjects with insomnia severity Moderate” value in data set [1] (9R carriers) is 6; in data set [1] (10R homozygotes), 4. Also, the “Number of subjects with insomnia severity None” value is reported as 11 in data set [1] (9R carriers) and 2 in data set [1] (10R homozygotes). Further, the “Number of subjects with insomnia severity Severe” value in data set [1] (9R carriers) turned out to be 0; in data set [1] (10R homozygotes), 4. For the same compound, the “Frequency of insomnia, daytime sleepiness, irritability, trouble concentrating, nausea/vomiting, dizziness, fatigue, blurry vision, difficulty reaching orgasm” value in data set [1] (APZ group vs. placebo, p<0.05, day 8) is “significantly more frequent”. In addition, the Insomnia severity entry is given as “did not” in data set [1] (APZ relative to placebo, DAT1/SLC6A3 9R carriers); “more severe insomnia” in data set [1] (APZ relative to placebo, DAT1/SLC6A3 10R homozygotes); “less severe” in data set [1] (among subjects who received APZ, with a greater number of higher-DA alleles). For the same compound, the “Effect size (partial η2) of interaction medication x DAT1/SLC6A3 genotype on bar-lab drinking” value in data set [2] (setting [5]) amounted to 0.064. Besides, the “Bar-lab drinking (number of drinks consumed)” value in data set [2] (APZ relative to placebo, DAT1/SLC6A3 9R carriers, day 8) is given as “reduced drinking”. Moreover, the “Effect size (partial η2) of main effect of medication on bar-lab drinking” value in data set [2] (APZ vs. placebo, all subjects) was determined as 0.049. Also, the “Bar Lab Drinks: effect size of interaction medication x genotype permutation” value in data set [2] (setting [6]) is 0.068; in data set [2] (setting [7]), 0.050; in data set [2] (setting [8]), 0.069; in data set [2] (DAT1 + COMT + DRD2), 0.100; in data set [2] (DAT1 + COMT + DRD4), 0.071; in data set [2] (DAT1 + COMT), 0.079. Also, the entries for the “Bar Lab Drinks: effect size of interaction medication x genotype permutation” value in data set [2] (DAT1 + DRD2 + DRD4), in data set [2] (DAT1 + DRD2) and in data set [2] (DAT1 + DRD4) were 0.072, 0.081 and 0.045, respectively. Further, the “Effect size (partial η2) of simple effect of medication on bar-lab drinking” value is given as 0.12 in data set [2] (among DAT1/SLC6A3 9R carriers, APZ vs. placebo) and 0.15 in data set [2] (among subjects with four or more higher-DA alleles, APZ vs. placebo). In addition, the “Euphoric effects of alcohol drinking” value in data set [3] (natural environment or bar-lab setting) is reported as “reduce”. Moreover, the “Alcohol cue-elicited VS activation” value in data set [3] (reported earlier) was “reduce”. Also, the “Effect size (partial η2) of interaction medication x DAT1/SLC6A3 genotype on VS activation” value in data set [4] (setting [5]) was 0.061. Also, the “Alcohol cue-elicited VS activation (ALC vs. BEV percent signal change)” value in data set [4] (DAT1/SLC6A3 9R carriers) is on record as “reduced VS activation”; in data set [4] (DAT1/SLC6A3 10R homozygotes), “increased it”. Further, the “VS Activation: effect size of interaction medication x genotype permutation” value in data set [4] (setting [6]) is 0.067; in data set [4] (setting [7]), 0.063; in data set [4] (setting [8]), 0.051; in data set [4] (DAT1 + COMT + DRD2), 0.026; in data set [4] (DAT1 + DRD2 + DRD4), 0.084; in data set [4] (DAT1 + DRD2) it was 0.068. Also, in data set [4] (DAT1 + DRD4), the “VS Activation: effect size of interaction medication x genotype permutation” value was 0.077. The Alcohol consumption biomarker result with AUD is listed as “significantly improve”. In addition, the “Drinks per drinking day” value in the data set with AUD is “significantly improve”. The “Primary drinking outcome (percent days abstinent)” value with AUD is reported as “did not significantly change”.
